In paper PMC10285648, “iTAG an optimized IMiD-induced degron for targeted protein degradation in human and murine cells” (iScience, 2023):

Experiments:
[1] = tested on: Flag-HA-DCD23-RBM39, Flag-HA-DCD23-SMS; test: Quantitative TMT proteomics of CT26 expressing iTAG-tagged RBM39 or SMS; format: cell-based, mouse; settings: CT26, 10uM, 8h
Method: The protein lysates were probed for EGFP using western blotting. […] EGFP signal was then measured using flow cytometry. (3 independent experiments, normalized to the control and represented as mean ± SD). […] Data are plotted as Log2 fold change relative to DMSO versus Log10 of p value.
We then tested the degradation of RBM39 (nuclear) and SMS (cytoplasmic) N-terminally tagged with iTAG (DCD23) in CT26 and AT3 ([…]) (Figures 5C–5E).
Samples for quantitative proteomics were prepared using the SimPLIT workflow.[60] […] Samples were bath sonicated for 5 min, incubated at RT for 45 min and protein concentration was measured with the Bradford Protein Assay (Biorad) according to manufacturer instructions. […]
LC-MS analysis was performed on the Dionex Ultimate 3000 UHPLC system coupled with the Orbitrap Lumos mass spectrometer (Thermo Scientific). Samples were analyzed with the EASY-Spray C18 capillary column (75 μm × 50 cm, 2 μm) at 50°C. […] MS3 quantification was obtained with higher-energy collisional dissociation (HCD) fragmentation of the top 5 most abundant CID fragments isolated with synchronous precursor selection (SPS). […]
The SEQUEST-HT search engine was used to analyze the acquired mass spectra in Proteome Discoverer 2.4 (Thermo Scientific) for protein identification and quantification. […]

[2] = tested on: RBM39, CDK9, MAPK9, HPRT1, SMS, MAVS (tagged); test: Western blotting, iTAG versus dTAG at 24h on six targets in SUM159; format: cell-based, human; settings: SUM159, 24h
Method: Subsequently, we evaluated the extent of degradation induced by the two tagging systems. For this purpose, we tested targets present in different subcellular localizations at a longer time point (24h): RBM39 (-nuclear 59.3kDa-), CDK9 (Cyclin-dependent kinase 9 -nuclear 42.7kDa-), MAPK9 (Mitogen-activated protein kinase 9 -nuclear 48.1 kDa-), HPRT1 (Hypoxanthine Phosphoribosyltransferase 1-cytoplasmic 24.5kDa-), SMS (Spermine synthase –cytoplasmic 41.2kDa-), and MAVS (Mitochondrial antiviral-signaling protein -mitochondrial 56.5kDa-) (Figure S7).

O=C1CC[C@H](N2Cc3c(OCc4ccc(CN5CCOCC5)cc4)cccc3C2=O)C(=O)N1 [CC220, Iberdomide]
degradation of iTAG (DCD23) tagged RBM39 and SMS [1]: robust degradation
off-targets in proteome [1]: without any detected off-targets
degradation compared with dTAG [2]: more effective degradation of the targets even at low nanomolar CC220 concentrations
